Laboratory results reported in US20230250182A1, “METHODS FOR TREATING CANCER OR VON-HIPPEL LINDAU DISEASE USING A COMBINATION OF A PD-1 ANTAGONIST, A HIF-2 ALPHA INHIBITOR, AND LENVATINIB OR A PHARMACEUTICALLY ACCEPTABLE SALT THEREOF” (Merck Sharp & Dohme LLC, priority 2020, published 2023).

Experiments:
KPC-2838c3 cells = test: VHL proficient mouse syngeneic pancreatic tumor model; type: in vivo, C57BL/6J mice; conditions: for Final CRs (complete tumor regressions) / Final PRs (partial tumor regressions): 10 mice per group; for Final CRs (complete tumor regressions): CR = no observable tumor; for Final PRs (partial tumor regressions): PR = tumor volume lower than original size when treatment began; for TGI (tumor growth inhibition): Day 24, MK-6482 3 mg/kg BID oral, lenvatinib 10 mg/kg QD oral, anti-PD-1 10 mg/kg i.p. every 5 days
Source text: Prior to treatment initiation, female C57BL/6J mice aged 7 weeks weighing between 18 to 21 grams were anesthetized and injected into the rear flank with 0.5×10^6 log-phase sub-confluent KPC-2838c3 cells. Ten (10) days later when the mean tumor volume of inoculated animals reached approximately 95 mm^3, mice were pair-matched into 8 treatment groups consisting of 10 mice per group. Treatment groups consisted of: 1) 0.5% methylcellulose (Vehicle)+Isotype mouse IgG1 antibody (mIgG1); 2) MK-6482+mIgG1; 3) Lenvatinib+mIgG1; 4) Vehicle+anti-mouse PD-1 IgG1 antibody; 5) MK-6482+anti-PD-1; 6) Lenvatinib+anti-PD-1; 7) MK-6482+Lenvatinib; 8) MK-6482+Lenvatinib+anti-PD-1. Vehicle and MK-6482 were orally gavage-dosed twice daily (BID) at 3 mg/kg body weight. Lenvatinib was orally dosed once daily (QD) at 10 mg/kg body weight. Isotype control, a mouse monoclonal antibody specific for adenoviral hexon of the isotype IgG1, and anti-PD-1 antibodies were dosed intraperitoneally every 5 days at 10 mg/kg body weight. Start of treatments was considered Day 0 and dosing based on schedules continued as described until Day 45. Caliper measurements of tumors and body weights were captured twice weekly. Statistical analyses were performed by one-way ANOVA with Tukey multiple comparison tests at the timepoints specified when treatment groups reached endpoints.
CRs were defined as no observable tumor whereas PRs were tumors whose volume was lower than the original tumor size when treatment began. There was no significant body weight loss or adverse events observed in any animals treated with the above therapies, indicating the treatments were well tolerated.

[1] = Phase 1 cross-over food-effect PK study of single dose MK-6482 in healthy volunteers; type: in vivo, human; conditions: single dose of 120 mg, healthy female adult volunteers
[2] = FIH Phase 1 study of tolerability, safety, PK and PD of MK-6482 in participants with advanced solid tumors; type: in vivo, human
Description: As of 6 Sep. […] 52 additional participants with advanced RCC were treated in an expansion cohort (Part 1B) at the clinical dose of 120 mg QD.

[3] = Phase 2 open-label efficacy and safety study in VHL disease associated RCC; type: in vivo, human; conditions: 120 mg QD, 61 participants with VHL disease associated RCC
Source text: A Phase 2, open-label efficacy and safety study in participants with VHL disease associated RCC is ongoing. As of 6 Sep.

[4] = combined dose escalation and expansion cohorts
[5] = dose escalation (Part 1A) 20 to 240 mg QD and 120 mg BID

Row | Compound | Final CRs (complete tumor regressions) (KPC-2838c3 cells) | Final PRs (partial tumor regressions) (KPC-2838c3 cells) | TGI (tumor growth inhibition) (KPC-2838c3 cells) | delay of time to peak MK-6482 exposure, median difference (Fed-Fasted) [1] | most common adverse event (AE) reported: headache [1] | effect of high fat, high calorie meal on extent of MK-6482 exposure ([1]; fed vs fasted) | lowering of maximum plasma MK-6482 concentration by high fat, high calorie meal ([1]; fed vs fasted) | Grade 3 event of hypoxia (DLT) ([2]; 120 mg BID cohort) | accumulation from Day 1 to Day 15 ([2]; 120 mg QD expansion cohort (Part 1B)) | Cmax ([2]; 120 mg QD expansion cohort (Part 1B), Day 15, read-out: mean steady state Cmax) | Grade 4 event of thrombocytopenia (DLT) ([2]; 240 mg QD cohort) | most common AEs (occurring in ≥20% of participants) [2, 4] | most common Grade 3 AEs (in ≥5% of participants) [2, 4] | MTD [2, 5] | treatment-related DLTs observed [2, 5] | Vd/F ([2]; human, in vivo) | estimated CL/F ([2]; human, in vivo) | Tmax ([2]; human, in vivo, participants with advanced solid tumors, oral, read-out: median tmax) | exposure versus dose ([2]; participants with advanced solid tumors) | most common AE of ≥Grade 3 toxicity (reported by ≥5% of participants) [3]
1 | COc1cc2nccc(Oc3ccc(NC(=O)NC4CC4)c(Cl)c3)c2cc1C(N)=O [Lenvatinib, 4-[3-chloro-4-(cyclopropylaminocarbonyl)aminophenoxy]-7-methoxy-6-quinolinecarboxamide] | 0/10 PRs, 0/10 CRs | 0/10 PRs, 0/10 CRs | 90% | – | – | – | – | – | – | – | – | – | – | – | – | – | – | – | – | –
2 | CS(=O)(=O)c1ccc(Oc2cc(F)cc(C#N)c2)c2c1[C@H](O)[C@H](F)[C@@H]2F [MK-6482, 3-[(1S,2S,3R)-2,3-difluoro-1-hydroxy-7-methylsulfonyl-indan-4-yl]oxy-5-fluoro-benzonitrile] | 0/10 PRs, 0/10 CRs | 0/10 PRs, 0/10 CRs | 16% | 2 h | 12.5% | did not affect | approximately 35% | 1 | 1.5 fold | 4.67 µM | 1 | anemia, fatigue, dyspnea, nausea, and peripheral edema | anemia and hypoxia | not reached | 2 | 106 to 266 L | 5.22 to 14.4 L/h | 1 to 2.8 h | exposure increased with dose | Fatigue
